Source: US20240150377A1, “MODULATORS OF CYSTIC FIBROSIS TRANSMEMBRANE CONDUCTANCE REGULATOR” (VERTEX PHARMACEUTICALS INCORPORATED, priority 2020, published 2024)
pEC50: −log10 of the molar value. Where two headings read alike, the source gives them in different places.

Experiments:
CFTR [1] = target: T1, CFTR (Homo sapiens, UniProt P13569, DEL508-508); test: HBE2 assay: Ussing chamber assay of CFTR-mediated short-circuit currents; format: cell-based; settings: F508del/MF-HBE cells, with 44 nM potentiator, 18-24 hours, 20% human serum; for Emax: read-out: HBE2 Max activity (%)
T1 construct: endogenous in cells; host or cells: primary human bronchial epithelial cells from CF subjects (F508del/MF-HBE), differentiated at air-liquid interface
Procedure: Ussing Chamber Assay of CFTR-Mediated Short-Circuit Currents
After four days the apical media was removed, and the cells were grown at an air liquid interface for >14 days prior to use.
To isolate the CFTR-mediated short-circuit (ISC) current, F508del/MF-HBE grown on Costar® Snapwell™ cell culture inserts were mounted in an Ussing chamber and the transepithelial ISC was measured under voltage-clamp recording conditions (Vhold=0 mV) at 37° C. […] The CFTR-mediated ISC (μA/cm^2) for each condition was determined from the peak forskolin response to the steady-state current following inhibition.
Identification of Corrector Compounds
The activity of the CFTR corrector compounds on the CFTR-mediated ISC was determined in Ussing chamber studies as described above.

CFTR [2] = target: T1, CFTR; test: HBE assay: Ussing chamber assay of CFTR-mediated short-circuit currents; format: cell-based; settings: read-out: HBE Activity at 10 μM (%)
How it was run: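 CFTR-mediated Isc (μA/cm²) equals the peak response to apical 20 μM forskolin minus the residual after a 20 μM each BPO/GlyH-101/CFTR inhibitor 172 cocktail, recorded in Ussing chambers at Vhold 0 mV, 37 °C, pH 7.4, with 30 μM apical amiloride. Cells were F508del/MF HBE cultures preincubated 18-24 h with corrector (concentration range or 10 μM) plus 1 μM ivacaftor in 20% human serum.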

T1 sequence (P13569 with tags, fused parts or gaps DEL508-508): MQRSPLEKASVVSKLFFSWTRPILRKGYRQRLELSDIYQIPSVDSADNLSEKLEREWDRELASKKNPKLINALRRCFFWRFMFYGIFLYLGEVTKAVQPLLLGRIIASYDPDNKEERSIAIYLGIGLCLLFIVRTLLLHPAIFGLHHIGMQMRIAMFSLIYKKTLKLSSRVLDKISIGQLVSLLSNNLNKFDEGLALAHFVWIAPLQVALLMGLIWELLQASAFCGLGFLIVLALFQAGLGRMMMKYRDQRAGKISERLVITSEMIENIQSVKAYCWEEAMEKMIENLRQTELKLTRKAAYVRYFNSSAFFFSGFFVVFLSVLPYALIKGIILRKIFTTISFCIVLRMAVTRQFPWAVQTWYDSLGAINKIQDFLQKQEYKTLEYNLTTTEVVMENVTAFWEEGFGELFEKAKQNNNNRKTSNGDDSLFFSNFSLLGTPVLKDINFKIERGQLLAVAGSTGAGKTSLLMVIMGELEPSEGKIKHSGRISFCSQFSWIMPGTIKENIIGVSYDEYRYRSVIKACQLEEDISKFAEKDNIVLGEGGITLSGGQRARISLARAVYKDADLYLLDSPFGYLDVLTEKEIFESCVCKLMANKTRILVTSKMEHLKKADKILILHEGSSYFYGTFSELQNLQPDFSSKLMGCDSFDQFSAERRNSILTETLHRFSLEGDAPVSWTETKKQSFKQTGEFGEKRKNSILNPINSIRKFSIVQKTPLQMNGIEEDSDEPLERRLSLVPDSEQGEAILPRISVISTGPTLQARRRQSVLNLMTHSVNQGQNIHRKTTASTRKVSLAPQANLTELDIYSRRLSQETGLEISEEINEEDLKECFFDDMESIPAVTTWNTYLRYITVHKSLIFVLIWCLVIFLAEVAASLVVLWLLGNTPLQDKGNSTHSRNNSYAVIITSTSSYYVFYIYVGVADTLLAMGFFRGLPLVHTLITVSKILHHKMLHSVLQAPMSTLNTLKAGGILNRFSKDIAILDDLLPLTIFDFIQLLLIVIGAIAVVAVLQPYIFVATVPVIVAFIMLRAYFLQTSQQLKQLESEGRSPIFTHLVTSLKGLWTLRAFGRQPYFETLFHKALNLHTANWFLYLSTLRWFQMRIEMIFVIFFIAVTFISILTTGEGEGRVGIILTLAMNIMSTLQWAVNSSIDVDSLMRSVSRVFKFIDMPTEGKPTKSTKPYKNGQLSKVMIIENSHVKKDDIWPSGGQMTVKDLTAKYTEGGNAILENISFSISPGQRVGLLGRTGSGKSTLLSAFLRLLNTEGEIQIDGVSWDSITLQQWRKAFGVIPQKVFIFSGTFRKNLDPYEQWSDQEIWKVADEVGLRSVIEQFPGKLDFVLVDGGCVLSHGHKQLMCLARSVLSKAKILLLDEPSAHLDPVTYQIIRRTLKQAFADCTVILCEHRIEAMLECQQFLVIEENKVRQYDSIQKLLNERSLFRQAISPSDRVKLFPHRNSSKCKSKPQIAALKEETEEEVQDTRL

Cc1cccc(C)c1-c1cc2nc(n1)NS(=N)(=O)c1cccc(c1)C(=O)N(Cc1ncc(N3CC(C)(C)C3)cn1)[C@H](CC(C)(C)C)CO2 (single isomer, unassigned) [Compound 1312]
HBE2 Activity at 3 μM (%) (CFTR [1]; 3 μM): ++ (++ is 30-60%)

Cc1cccc(C)c1-c1cc2nc(n1)NS(=N)(=O)c1cccc(c1)C(=O)N(Cc1ncc(N3CC(C)(C)C3)cn1)[C@H](CC(C)(C)C)CO2 (single isomer, unassigned) [Compound 1313]
HBE2 Activity at 3 μM (%) (CFTR [1]; 3 μM): +++ (+++ is >60+)

Cc1cccc(C)c1-c1cc2nc(n1)NS(=O)(=O)c1cccc(c1)C(=O)N(Cc1cncc(N3CC[C@@H]4CC[C@@H]43)n1)[C@H](CC(C)(C)C)CO2 (single isomer, unassigned) [Compound 1314]
HBE2 Activity at 3 μM (%) (CFTR [1]; 3 μM): +++ (+++ is >60+)

Cc1cccc(C)c1-c1cc2nc(n1)NS(=O)(=O)c1cccc(c1)C(=O)N(Cc1cncc(N3CCC[C@H]4CC[C@H]43)n1)[C@H](CC(C)(C)C)CO2 (single isomer, unassigned) [Compound 1315]
HBE2 Activity at 3 μM (%) (CFTR [1]; 3 μM): +++ (+++ is >60+) | pEC50 (CFTR [1]): > 6.00 | Emax (CFTR [1]): > 60%

Cc1cccc(C)c1-c1cc2nc(n1)NS(=O)(=O)c1cccc(c1)C(=O)N(Cc1cncc(N3CCC[C@H]4CC[C@H]43)n1)[C@H](CC(C)(C)C)CO2 (single isomer, unassigned) [Compound 1316]
HBE2 Activity at 3 μM (%) (CFTR [1]; 3 μM): +++ (+++ is >60+)

Cc1cccc(C)c1-c1cc2nc(n1)NS(=O)(=O)c1cccc(c1)C(=O)N(Cc1cncc(N(C)C3CCC3)n1)[C@H](C1CC3(CCC3)C1)CO2 (single isomer, unassigned) [Compound 1320, 12-[[6-[Cyclobutyl(methyl)amino]pyrazin-2-yl]methyl]-6-(2,6-dimethylphenyl)-2,2-dioxo-11-spiro[3.3]heptan-2-yl-9-oxa-2λ^6-thia-3,5,12,19-tetrazatricyclo[12.3.1.14,8]nonadeca-1(18),4(19),5,7,14,16-hexaen-13-one]
HBE2 Activity at 3 μM (%) (CFTR [1]; 3 μM): +++ (+++ is >60+) | pEC50 (CFTR [1]): > 6.00 | Emax (CFTR [1]): > 60%

Cc1cccc(C)c1-c1cc2nc(n1)NS(=O)(=O)c1cccc(c1)C(=O)N(Cc1cncc(N(C)C3CCC3)n1)[C@H](C1CC3(CCC3)C1)CO2 (single isomer, unassigned) [Compound 1321, 12-[[6-[cyclobutyl(methyl)amino]pyrazin-2-yl]methyl]-6-(2,6-dimethylphenyl)-2,2-dioxo-11-spiro[3.3]heptan-2-yl-9-oxa-2λ^6-thia-3,5,12,19-tetrazatricyclo[12.3.1.14,8]nonadeca-1(18),4(19),5,7,14,16-hexaen-13-one]
HBE2 Activity at 3 μM (%) (CFTR [1]; 3 μM): ++ (++ is 30-60%)

Cc1cccc(C)c1-c1cc2nc(n1)NS(=O)(=O)c1cccc(c1)C(=O)N(Cc1cncc(N(C)C3CCC3)n1)[C@]1(CCC(C)(C)C1)CO2 (single isomer, unassigned) [Compound 1325, 12-[[6-[cyclobutyl(methyl)amino]pyrazin-2-yl]methyl]-6-(2,6-dimethylphenyl)-1′,1′-dimethyl-2,2-dioxo-spiro[9-oxa-2λ^6-thia-3,5,12,19-tetrazatricyclo[12.3.1.14,8]nonadeca-1(18),4(19),5,7,14,16-hexaene-11,3′-cyclopentane]-13-one]
HBE2 Activity at 3 μM (%) (CFTR [1]; 3 μM corrector): +++ (+++ is >60+)

Cc1cccc(C)c1-c1cc2nc(n1)NS(=O)(=O)c1cccc(c1)C(=O)N(Cc1cncc(N(C)C3CCC3)n1)[C@]1(CCC(C)(C)C1)CO2 (single isomer, unassigned) [Compound 1326, 12-[[6-[cyclobutyl(methyl)amino]pyrazin-2-yl]methyl]-6-(2,6-dimethylphenyl)-1′,1′-dimethyl-2,2-dioxo-spiro[9-oxa-2λ^6-thia-3,5,12,19-tetrazatricyclo[12.3.1.14,8]nonadeca-1(18),4(19),5,7,14,16-hexaene-11,3′-cyclopentane]-13-one]
HBE2 Activity at 3 μM (%) (CFTR [1]; 3 μM corrector): +++ (+++ is >60+)

Cc1cccc(C)c1-c1cc2nc(n1)NS(=O)(=O)c1cccc(c1)C(=O)N(Cc1cncc(N3CCCC[C@H]3C)n1)[C@@H](CCC(C)(C)F)CO2 (single isomer, unassigned) [Compound 1327]
HBE2 Activity at 3 μM (%) (CFTR [1]; 3 μM corrector): +++ (+++ is >60+)

Cc1cccc(C)c1-c1cc2nc(n1)NS(=O)(=O)c1cccc(c1)C(=O)N(Cc1cncc(N3CCCC[C@H]3C)n1)[C@@H](CCC(C)(C)F)CO2 (single isomer, unassigned) [Compound 1328]
HBE2 Activity at 3 μM (%) (CFTR [1]; 3 μM corrector): ++ (++ is 30-60%)

CCC(C)(C)C[C@@H]1COc2cc(-c3c(C)cccc3C)nc(n2)NS(=O)(=O)c2cccc(c2)C(=O)N1Cc1cncc(N(C)C2CCC2)n1 (single isomer, unassigned) [Compound 1330, 12-[[6-[cyclobutyl(methyl)amino]pyrazin-2-yl]methyl]-11-(2,2-dimethylbutyl)-6-(2,6-dimethylphenyl)-2,2-dioxo-9-oxa-2λ^6-thia-3,5,12,19-tetrazatricyclo[12.3.1.14,8]nonadeca-1(18),4,6,8(19),14,16-hexaen-13-one]
HBE2 Activity at 3 μM (%) (CFTR [1]; 3 μM corrector): +++ (+++ is >60+)

Cc1cccc(C)c1-c1cc2nc(n1)NS(=O)(=O)c1cccc(c1)C(=O)N(Cc1cncc(N3CCCC3C)n1)[C@H](C1CC(C)(C)C1)CO2 (single isomer, unassigned) [Compound 1337]
HBE2 Activity at 3 μM (%) (CFTR [1]; 3 μM corrector): ++ (++ is 30-60%)

Cc1cccc(C)c1-c1cc2nc(n1)NS(=O)(=O)c1cccc(c1)C(=O)N(Cc1cncc(N3CCCC3C)n1)[C@H](C1CC(C)(C)C1)CO2 (single isomer, unassigned) [Compound 1338]
HBE2 Activity at 3 μM (%) (CFTR [1]; 3 μM corrector): +++ (+++ is >60+)

Cc1cccc(C)c1-c1cc2nc(n1)NS(=O)(=O)c1cccc(c1)C(=O)N(Cc1cncc(N(C)C3CCC3)n1)[C@H](CC1CC(C)(C)C1)CO2 (single isomer, unassigned) [Compound 1339, 12-[[6-[Cyclobutyl(methyl)amino]pyrazin-2-yl]methyl]-11-[(3,3-dimethylcyclobutyl)methyl]-6-(2,6-dimethylphenyl)-2,2-dioxo-9-oxa-2λ^6-thia-3,5,12,19-tetrazatricyclo[12.3.1.14,8]nonadeca-1(18),4(19),5,7,14,16-hexaen-13-one]
HBE2 Activity at 3 μM (%) (CFTR [1]; 3 μM corrector): +++ (+++ is >60+)

COC[C@]1(C)CCCN1c1cccc(CN2C(=O)c3cccc(c3)S(=O)(=O)Nc3nc(cc(-c4c(C)cccc4C)n3)OC[C@H]2CC(C)(C)C)n1 [Compound 1511]
activation at 10 µM (CFTR [2]; HBE assay, 10 μM): > 60%

CC(=O)Nc1cnc(CN2C(=O)c3cccc(c3)S(=O)(=O)Nc3nc(cc(-c4c(C)cccc4C)n3)OC[C@H]2CC(C)(C)C)nc1 [Compound 1513]
activation at 10 µM (CFTR [2]; HBE assay, 10 μM): > 60%

COC(=O)Nc1cnc(CN2C(=O)c3cccc(c3)S(=O)(=O)Nc3nc(cc(-c4c(C)cccc4C)n3)OC[C@H]2CC(C)(C)C)nc1 [Compound 1514]
activation at 10 µM (CFTR [2]; HBE assay, 10 μM): > 60%

Cc1cccc(C)c1-c1cc2nc(n1)NS(=O)(=O)c1cccc(c1)C(=O)N(Cc1ncc(NC(=O)OC(C)C)cn1)[C@H](CC(C)(C)C)CO2 [Compound 1515]
activation at 10 µM (CFTR [2]; HBE assay, 10 μM): > 60%

CC(=O)N(C)c1cnc(CN2C(=O)c3cccc(c3)S(=O)(=O)Nc3nc(cc(-c4c(C)cccc4C)n3)OC[C@H]2CC(C)(C)C)nc1 [Compound 1516]
activation at 10 µM (CFTR [2]; HBE assay, 10 μM): > 60%

CCCOc1cnc(CN2C(=O)c3cccc(c3)S(=O)(=O)Nc3nc(cc(-c4c(C)cccc4C)n3)OC[C@H]2CC(C)(C)C)nc1 [Compound 1521]
activation at 10 µM (CFTR [2]; HBE assay, 10 μM): > 60%

CCOc1cnc(CN2C(=O)c3cccc(c3)S(=O)(=O)Nc3nc(cc(-c4c(C)cccc4C)n3)OC[C@H]2CC2(C)CC2)nc1 [Compound 1524]
activation at 10 µM (CFTR [2]; HBE assay, 10 μM): > 60%

Cc1cccc(C)c1-c1cc2nc(n1)NS(=O)(=O)c1cccc(c1)C(=O)N(Cc1ncc(N3CC(C)(C)C3)cn1)[C@H](CCC(C)(C)C)CO2 [Compound 1525]
activation at 10 µM (CFTR [2]; HBE assay, 10 μM): > 60%

COCC(COC)N(C)c1cncc(CN2C(=O)c3cccc(c3)S(=O)(=O)Nc3nc(cc(-c4c(C)cccc4C)n3)OC[C@H]2CC(C)(C)C)n1 [Compound 1531]
activation at 10 µM (CFTR [2]; HBE assay, 10 μM): > 60%

Cc1cccc(C)c1-c1cc2nc(n1)NS(=O)(=O)c1cccc(c1)C(=O)N(Cc1cncc(N3CCCC[C@H]3C3CC3)n1)[C@H](CC(C)(C)C)CO2 [Compound 1532]
activation at 10 µM (CFTR [2]): > 60%

Cc1cccc(C)c1-c1cc2nc(n1)NS(=O)(=O)c1cccc(c1)C(=O)N(Cc1cncc(N3CCCC[C@@H]3C3CC3)n1)[C@H](CC(C)(C)C)CO2 [Compound 1533]
activation at 10 µM (CFTR [2]): > 60%

Cc1cccc(C)c1-c1cc2nc(n1)NS(=O)(=O)c1cccc(c1)C(=O)N(Cc1cncc(N3CCC[C@@H]3C3CCOCC3)n1)[C@H](CC(C)(C)C)CO2 [Compound 1534]
activation at 10 µM (CFTR [2]; HBE assay, 10 μM): > 60%

COC[C@H]1CCCCN1c1cncc(CN2C(=O)c3cccc(c3)S(=O)(=O)Nc3nc(cc(-c4c(C)cccc4C)n3)OC[C@H]2CC(C)(C)C)n1 [Compound 1538]
activation at 10 µM (CFTR [2]): > 60%

Cc1cccc(C)c1-c1cc2nc(n1)NS(=O)(=O)c1cccc(c1)C(=O)N(Cc1cncc(N3CC[C@@H]4COC[C@@H]43)n1)[C@H](CC(C)(C)C)CO2 [Compound 1540]
activation at 10 µM (CFTR [2]; HBE assay, 10 μM): > 60%

Cc1cccc(C)c1-c1cc2nc(n1)NS(=O)(=O)c1cccc(c1)C(=O)N(Cc1cncc(N3CC[C@@H]4CCC[C@@H]43)n1)[C@H](CC(C)(C)C)CO2 [Compound 1542]
activation at 10 µM (CFTR [2]; HBE assay, 10 μM): > 60%
